According to patent publication US7026122B2, “Methods of assaying for compounds that inhibit premature translation termination and nonsense-mediated RNA decay” (PTC Therapeutics, Inc., priority 1999, dated 2006):

Tests used:
[1] = system: premature translation termination (luciferase reporter with premature stop codon); experiment: Suppression assay in cells transiently transfected with stop codon luciferase plasmids; type: cell-based; conditions: cells transiently infected with pMLT49, pMLT54 or pMLT55h for 24 hours; 12 hour exposure; FIGS. 2A-C
Experimental: Cells, transiently infected with the indicated plasmids for 24 hours, were exposed to the indicated concentration of G418 (panel A, pMLT49; panel B, pMLT54; panel C, pMLT55h). Luciferase activity was measured after a 12 hour exposure.

[2] = system: premature translation termination and NMD (luciferase reporter with premature stop codon); experiment: Cell-based assay, 293 cells stably transfected with pMLT55, luciferase activity; conditions: 12 hour exposure
Experimental: The indicated independent clones were exposed to the indicated concentrations of G418. Luciferase activity was measured after a 12 hour exposure.
The indicated cell numbers were plated per well of a 96 well plate. Cells were exposed to the indicated concentrations of G418. Luciferase activity was measured after a 12 hour exposure on a robotic 96 well plate reader. Gentamycin was also used to inhibit NMD and premature translation termination.
On day 1, clone 55–31, a 293 cell line stably transfected with pMLT 55 (see FIG. 1) was plated in 96 well plates in the morning in DMEM media with 10% fetal bovine serum. Approximately 80 plates are plated at 40,000 cells per well in 100 μL. The cells were incubated overnight at 37° C.
On day two, test compounds (1 μL of 1 mM stock solution in 100 μL DMSO; 10 μM final concentration) were added. G418 (1 mg/ml) was added to column 12 of each plate as a control. The plates were incubated at 37° C. for 12–16 hours.
On day three, luciferase substrate was added to the cells and the plates were read on a Torcon automated luciferase assay reader for 96 well plates (see, e.g., FIGS. 3–4). Luciferase substrate is commercially available, e.g., from Promega.

[3] = system: premature translation termination (stop codon-containing luciferase RNA); experiment: Biochemical suppression assay using RRL (rabbit reticulocyte lysate) and luciferase RNA; conditions: WT or stop codon luciferase RNA, incubated 45 or 90 minutes, FIGS. 7A-B
Experimental: In vitro translation assays were performed in the presence of RRL, luciferase RNA (panel A, WT; panel B, stop codon) and the indicated concentrations of gentamycin. Reactions were incubated 45 or 90 minutes before luciferase activity was determined. WT and stop codon containing RNA are schematically shown. The reactions were performed in either a 96 or 384 well format. In vitro synthesized reporter RNA (see constructs in FIG. 5) was added to 15 μL of fully supplemented rabbit reticulocyte lysate according to standard methodology (prepared by the method of Jackson & Hunt, Methods in Enzymology 96:50–75 (1983). 0.5 to 1 μg of in vitro transcribed RNA was used per reaction. The reaction was mixed with 15 μL of a 2% DMSO solution containing 20 μM of test compound. The reaction was incubated for 90 minutes at 30° C. in a humidified incubator. Luciferase substrate was added and luciferase activity was read on a Torcon automated reader (see FIGS. 6–7).

[4] = system: premature stop codons in the dystrophin gene; conditions: mdx mouse, Barton-Davis et al. 1999; cited from earlier work

CN[C@@H]1[C@@H](O)[C@@H](O[C@@H]2[C@@H](O)[C@H](O[C@H]3O[C@H]([C@@H](C)O)[C@@H](O)[C@H](O)[C@H]3N)[C@@H](N)C[C@H]2N)OC[C@]1(C)O [G418]
G418-mediated suppression (luciferase activity) [1]: not cell line specific | G418-mediated suppression (luciferase activity), high throughput format ([2]; clone #31, 96 well plate, FIG. 4): suppression in a stably transfected 293 cell line (clone #31) in high throughput format | G418-mediated suppression (relative luciferase activity, fold activation) ([2]; independent clones of 293 cells stably transfected with pMLT55, FIGS. 3A-B): suppression in various clones of stably transfected 293 cells

gentamycin
Suppression by gentamycin (luciferase activity) [3]: time dependent

gentamycin sulfate
Suppression of translational termination at premature stop codons [4]: found to suppress translational termination at premature stop codons in the dystrophin gene
